Laboratory results from US11110082B2, “Tyrosine kinase inhibitors” (Rigel Pharmaceuticals, Inc., priority 2016, dated 2021).

Target: T1, MerTK (Homo sapiens, UniProt Q12866)
T1 construct: Seed HUVECs (10K cells/well) in EBM-2 complete media; host or cells: HUVEC (primary human umbilical vein endothelial cells)
T1 sequence (Q12866 21-999): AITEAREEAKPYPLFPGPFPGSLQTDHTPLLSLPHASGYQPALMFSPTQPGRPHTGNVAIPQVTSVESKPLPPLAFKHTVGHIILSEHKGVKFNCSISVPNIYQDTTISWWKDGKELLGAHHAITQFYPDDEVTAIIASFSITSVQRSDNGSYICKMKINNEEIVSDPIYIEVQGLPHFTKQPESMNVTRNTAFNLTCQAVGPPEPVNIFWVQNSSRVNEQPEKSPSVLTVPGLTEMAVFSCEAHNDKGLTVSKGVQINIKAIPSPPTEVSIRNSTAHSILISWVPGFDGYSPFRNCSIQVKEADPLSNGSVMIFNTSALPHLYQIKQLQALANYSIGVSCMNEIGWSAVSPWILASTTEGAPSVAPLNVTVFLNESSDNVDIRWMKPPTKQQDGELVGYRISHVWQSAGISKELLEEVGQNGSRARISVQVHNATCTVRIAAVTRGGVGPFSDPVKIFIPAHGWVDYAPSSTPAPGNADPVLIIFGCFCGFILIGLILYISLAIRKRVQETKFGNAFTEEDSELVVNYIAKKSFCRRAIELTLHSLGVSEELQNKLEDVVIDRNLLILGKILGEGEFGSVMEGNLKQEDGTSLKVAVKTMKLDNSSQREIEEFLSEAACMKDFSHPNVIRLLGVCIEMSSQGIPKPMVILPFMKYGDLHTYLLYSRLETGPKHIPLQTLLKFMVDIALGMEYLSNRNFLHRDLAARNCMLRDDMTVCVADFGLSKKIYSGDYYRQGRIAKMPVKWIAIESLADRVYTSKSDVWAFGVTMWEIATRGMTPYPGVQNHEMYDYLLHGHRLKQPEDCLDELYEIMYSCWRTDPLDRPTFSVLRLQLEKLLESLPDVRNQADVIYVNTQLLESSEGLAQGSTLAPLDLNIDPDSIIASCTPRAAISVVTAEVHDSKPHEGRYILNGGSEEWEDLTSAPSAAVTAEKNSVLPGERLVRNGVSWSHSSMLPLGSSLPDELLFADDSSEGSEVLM
Assay: PAKT HTRF-HUVEC assay (pAkt Ser473 HTRF after anti-human MerTK-XL stimulation)
Format: cell-based
Settings: HUVEC cells, 1 hour compound, stimulated with anti-human MerTK-XL 1 ug/mL for 10 minutes, read-out: inhibition of MerTK
Method in brief: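 HUVECs starved 3-4 h in basal medium, preincubated with compound 1 h at 37° C, then stimulated 10 min with cross-linked anti-human MerTK antibody (final 1 ug/mL). Lysates read for pAkt (Ser473) by HTRF; EC50 from curve fitting.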

| EC50 | Compound |
| --- | --- |
| 57.3 nM | CCOC1CCN(Cc2ccc3c(c2)c(=O)n(C2CCC(O)CC2)c2nc(NCC4CC4)ncc32)CC1 (stereo not drawn) [Compound 144, 3-((cyclopropylmethyl)amino)-8-((4-ethoxypiperidin-1-yl)methyl)-5-((1s,4s)-4-hydroxycyclohexyl)pyrimido[4,5-c]isoquinolin-6(5H)-one] |
| 296 nM | O=c1c2cc(N3CCn4ncnc4C3)ccc2c2cnc(NCC3CC3)nc2n1[C@H]1CC[C@H](O)CC1 [Compound 164] |

More lines, now with the values behind:

| Compound | EC50 |
| --- | --- |
| CN1CCN(Cc2ccc3c(c2)c(=O)n([C@H]2CC[C@H](O)CC2)c2nc(NCCCC(F)(F)F)ncc32)CC1 [Compound 25, trans-5-(4-hydroxycyclohexyl)-8-((4-methylpiperazin-1-yl)methyl)-3-((4,4,4-trifluorobutyl)amino)pyrimido [4,5-c]isoquinolin-6(5H)-one] | 1680 nM |
| CCC1(CNc2ncc3c4ccccc4c(=O)n([C@H]4CC[C@H](O)CC4)c3n2)CCC1 [Compound 116, trans-3-(((1-Ethylcyclobutyl)methyl)amino)-5-(4-hydroxycyclohexyl)pyrimido [4,5-c]isoquinolin-6(5H)-one] | 4620 nM |
| CCCCNc1ncc2c3ccc(N4CCN5CCC4CC5)cc3c(=O)n([C@H]3CC[C@H](O)CC3)c2n1 [Compound 81, trans-8-(1,4-Diazabicyclo[3.2.2]nonan-4-yl)-3-(butylamino)-5-(4-hydroxycyclohexyl)pyrimido[4,5-c]isoquinolin-6(5H)-one] | 13.9 nM |
| CN1CCC(n2c(=O)c3cc(CN4CCN(C)CC4)ccc3c3cnc(NCC4CC4)nc32)CC1 [Compound 136] | 320 nM |
